This note sets out measurements from PubChem BioAssay AID2060493 (Molecular Pharmacology Branch, DTP, NCI, 2025).

In general, viability, T/C refers to the result in the treated group divided by that in the control group, in per cent. One may read the IC50 as the concentration needed to halve the response being measured.

The subject of the assay is 616215-338-R-J1-PDC tumor spheroids, viability. Briefly: Anticancer human tumor 616215-338-R-J1-PDC patient-derived colon adenocarcinoma cell line growth inhibition [GQUAD]. The following applies: spheroids with HUVEC and MSC; for viability, T/C: stronger effect = lower value. The source says:
DNA G-quadruplex Stabilizer Agents in Combinations in Complex Spheroids
A high-throughput screen of multi-cell type tumor spheroids was designed to identify active combinations of DNA G-quadruplex stabilizer agents and targeted small molecules. Complex spheroids include a stromal component modeled by human endothelial cells (HUVEC) and fibroblasts modeled by human mesenchymal stem cells (MSCs). The concentration ranges selected for each drug and investigational agent were based upon clinically achievable concentrations if the clinical Cmax of the agent was known.
Compounds. The drugs and investigational agents: pidnarulex (CX-5461; NSC782164), APTO-253 (NSC789042), BRACO-19 (NSC847499), peposertib (NSC802822), ceralasertib (NSC780249), elimusertib (NSC800525), camonsertib (NSC841442), AZD-1390 (NSC803789), olaparib (NSC753686), talazoparib (NSC767125), ART-558 (NSC835418), sotorasib (NSC818433), MRTX-1133 (NSC836407), SN-38 (NSC673596), topotecan (NSC609699), etoposide (NSC141540), doxorubicin (NSC123127), gemcitabine (NSC613327), 5-fluorouracil (NSC19893), paclitaxel (NSC125973), vemurafenib (NSC761431), panobinostat (NSC761190), R-306465 (JNJ-16241199; NSC773264), adavosertib (NSC754352), TP-3654 (NSC805149), carboplatin (NSC241240), KSQ-4279 (NSC840948), and staurosporine (NSC755774) were obtained from the National Cancer Institute (NCI) Developmental Therapeutics Program Chemical Repository (34). The FDA-approved anticancer drug set is available from the NCI Developmental Therapeutics Program. […] The stock solutions were prepared in dimethyl sulfoxide (DMSO, Sigma-Aldrich, St. Louis, MO, cat. D2650) at 800-fold the tested concentration and stored at -70 degrees C prior to their use. All drugs and investigational agents were tested over a range starting from a high concentration at or near the clinical Cmax and decreasing in half-log increments. If the clinical Cmax for an agent had not been determined, the highest concentration tested was 10 microM.
2.3 Cell Culture. All cells were maintained in an incubator at 37 degrees C and 5% CO2 with 95% humidity. The PDC lines were cultured according to standard operating procedures established by the NCI PDMR. All PDCs were thawed and cultured in Matrigel-coated flasks prepared with a working solution of 1X Ham's F-12 nutrient mix, without supplementation (Invitrogen, cat. 11765054), 100 U/mL penicillin-streptomycin (Invitrogen, cat. 15140122), and 2.5% Matrigel (Corning Inc., cat. 354248) for the first three passages. The 857933-349-R-J2-PDC line was cultured in 6C/Colon 1B media, which includes advanced DMEM/F-12 (Thermo Fisher Scientific, cat. 12634028), 10 mM HEPES (Thermo Fisher Scientific, cat. 15630080), 1X GlutaMAX supplement (Thermo Fisher Scientific, cat. 35050061), 0.1 mg/mL primocin (InvivoGen, cat. ant-pm-2), 10% defined fetal bovine serum, heat inactivated (HyClone Laboratories Inc., cat. SH30070.03HI), 50% L-WRN conditioned media (ATCC, cat. CRL-3276), 1.25 mM N-Acetyl-L-cysteine (Sigma-Aldrich, cat. A9165), 10 mM nicotinamide (Sigma-Aldrich, cat. N0636), 1X B-27 supplement (Thermo Fisher Scientific, cat. 17504044), 1X N-2 supplement (Thermo Fisher Scientific, cat. 17502048), 10 microM Y-27632 dihydrochloride (Tocris Bioscience, cat. 1254), and 50 ng/mL human EGF recombinant protein (Thermo Fisher Scientific, cat. PHG0311). The 485176-168-R4-J1-PDC line was cultured in Panc media, which includes all 6C/Colon 1B media components plus 100 ng/mL human FGF-10 (Thermo Fisher Scientific, cat. 100-26), 500 nM SB-431542 (Selleckchem, cat. S1067), and gastrin (Tocris, cat. 3006).
[…]

“And” between values parts separate entries of the source, which are not always exact repeats. Equal values may be shown once.
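Further: spheroids exposed to agents for 7 days before readout.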
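Wherever viability, T/C is given: percent viability relative to DMSO vehicle control wells taken as 100%.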

As for `CN(C)c1ccc(Nc2c3ccc(NC(=O)CCN4CCCC4)cc3nc3cc(NC(=O)CCN4CCCC4)ccc23)cc1`, the viability, T/C was 105% [middle of 12 runs] (compound 0.0316 µM); 104% [middle of 12 runs] (compound 0.1 µM); 102% [middle of 12 runs] (compound 0.316 µM); 100% [middle of 12 runs] (compound 1 µM); 99.6% [middle of 12 runs] (compound 3.16 µM); 93.9% [middle of 12 runs] (compound 10 µM). Under “compound alone, run of 04/22/2024”, the IC50 was > 10000 nM.
Turning to `COc1cccc2c1C(=O)c1c(O)c3c(c(O)c1C2=O)CC(O)(C(=O)CO)CC3OC1CC(N)C(O)C(C)O1` (stereo unspecified), the viability, T/C by setting is: (compound 0.0316 µM) 99.9% and 99.3% and 97.8%; (compound 0.1 µM) 86.1% and 94.3% and 81%; (compound 0.316 µM) 45.8% and 52.1% and 60.8%; (compound 1 µM) 33.6% and 31% and 57.7%; (compound 3.16 µM) 24.8% and 24.6% and 27.7%; (compound 10 µM) 1.26% and 0.35% and 6.04%. For the setting “curve of compound”, the half-inhibitory concentration (IC50) is 411 nM and 470 nM and 878 nM.
Turning to `COc1cccc2c1C(=O)c1c(O)c3c(c(O)c1C2=O)CC(O)(C(=O)CO)CC3OC1CC(N)C(O)C(C)O1` (stereo unspecified) + CN(C)c1ccc(Nc2c3ccc(NC(=O)CCN4CCCC4)cc3nc3cc(NC(=O)CCN4CCCC4)ccc23)cc1, the IC50 is, setting by setting: (curve of first compound, second compound 0.0316 µM) 467 nM; (curve of first compound, second compound 0.1 µM) 511 nM; (curve of first compound, second compound 0.316 µM) 483 nM; (curve of first compound, second compound 1 µM) 469 nM; (curve of first compound, second compound 3.16 µM) 511 nM; (curve of first compound, second compound 10 µM) 348 nM. The viability, T/C (second compound 0.0316 µM, first compound 0.0316 µM) is 101%; the viability, T/C (second compound 0.0316 µM, first compound 0.1 µM) was 88%; the viability, T/C (second compound 0.0316 µM, first compound 0.316 µM) was 51.7%; the viability, T/C (second compound 0.0316 µM, first compound 1 µM) is 36.2%; the viability, T/C (second compound 0.0316 µM, first compound 3.16 µM) was 17.7%; the viability, T/C (second compound 0.0316 µM, first compound 10 µM) was 1.14%. The viability, T/C by setting is: (second compound 0.1 µM, first compound 0.0316 µM) 101%; (second compound 0.1 µM, first compound 0.1 µM) 92.3%; (second compound 0.1 µM, first compound 0.316 µM) 47.3%; (second compound 0.1 µM, first compound 1 µM) 41.3%; (second compound 0.1 µM, first compound 3.16 µM) 20.1%; (second compound 0.1 µM, first compound 10 µM) 0.23%. Besides, the viability, T/C (second compound 0.316 µM, first compound 0.0316 µM) is 105%; the viability, T/C (second compound 0.316 µM, first compound 0.1 µM) was 90.8%; the viability, T/C (second compound 0.316 µM, first compound 0.316 µM) was 49.3%; the viability, T/C (second compound 0.316 µM, first compound 1 µM) is 38%; the viability, T/C (second compound 0.316 µM, first compound 3.16 µM) is 20.1%; the viability, T/C (second compound 0.316 µM, first compound 10 µM) is 0.36%. Moreover, the viability, T/C was 102% (second compound 1 µM, first compound 0.0316 µM); 77.8% (second compound 1 µM, first compound 0.1 µM); 53.3% (second compound 1 µM, first compound 0.316 µM); 36% (second compound 1 µM, first compound 1 µM); 19.9% (second compound 1 µM, first compound 3.16 µM); 1.11% (second compound 1 µM, first compound 10 µM). Moreover, the viability, T/C is 97.6% (second compound 3.16 µM, first compound 0.0316 µM); 87.2% (second compound 3.16 µM, first compound 0.1 µM); 46.3% (second compound 3.16 µM, first compound 0.316 µM); 45.4% (second compound 3.16 µM, first compound 1 µM); 19.6% (second compound 3.16 µM, first compound 3.16 µM); 3.39% (second compound 3.16 µM, first compound 10 µM). Also, the viability, T/C is 101% (second compound 10 µM, first compound 0.0316 µM); 78% (second compound 10 µM, first compound 0.1 µM); 48.9% (second compound 10 µM, first compound 0.316 µM); 30.5% (second compound 10 µM, first compound 1 µM); 20.5% (second compound 10 µM, first compound 3.16 µM); 2.68% (second compound 10 µM, first compound 10 µM).
Take `Cc1cnc(CNC(=O)c2c(=O)c3ccc(N4CCCN(C)CC4)nc3n3c2sc2ccccc23)cn1`: the viability, T/C (compound 0.0316 µM) is 104% [middle of 12 runs]; the viability, T/C (compound 3.16 µM) is 31.6% [middle of 12 runs]; the viability, T/C (compound 10 µM) is 25.1% [middle of 12 runs].
In the case of `CC(C)n1c(=O)n(C)c2cnc3cc(F)c(-c4ccc(OCCCN5CCCCC5)nc4)cc3c21`, the viability, T/C is 107% and 104% and 97.4% (compound 0.0316 µM); 99% and 102% and 91.9% (compound 0.1 µM); 106% and 98.5% and 96.9% (compound 0.316 µM); 110% and 101% and 92.8% (compound 1 µM); 106% and 110% and 105% (compound 3.16 µM); 53% and 94.7% and 96.5% (compound 10 µM). Besides, for the setting “curve of compound”, the IC50 is > 10000 nM.
